Results on seven molecules are retold here after DBAASP.

Among the test systems are Micrococcus luteus A270; Cryptococcus neoformans; Cladosporium sp.; Penicillium expansum; Escherichia coli SBS 363; Escherichia coli D31; Bacillus subtilis JC443; Escherichia coli JC113.
Assay in all cases: ≥ marks a high value that may be exact or a test limit, other limits are often not marked, values filed in µg/mL are converted to µM
Test [1] relates to Staphylococcus aureus ATCC 25923.
In test [2] the test system is Escherichia coli ATCC 25922.
The test system of test [3] is Pseudomonas aeruginosa 4007.
Test [4] concerns Listeria monocytogenes KCTC 3710.
Test [5] relates to Escherichia coli CCARM 1229.
In test [6] the test system is Trichosporon beigelii KCTC 7707.
The test system of test [7] is Salmonella typhimurium KCTC 1926.
Test [8] relates to Bacillus subtilis KCTC 1998.
Test [9] relates to Escherichia coli CCARM 1238.
In test [10] the test system is Staphylococcus aureus CCARM 3518.
In test [11] the test system is Pseudomonas aeruginosa ATCC 27853.
Test [12] relates to Pseudomonas aeruginosa 4891.
Test [13] concerns Candida albicans KCTC 7270.
In test [14] the test system is Staphylococcus aureus CCARM 3090.
Test [15] relates to Candida albicans IOC 4558.
Test [16] relates to Candida tropicalis IOC 4560.
Test [17] relates to Staphylococcus aureus ATCC 29213.
Test [18] has as its system Staphylococcus aureus ATCC 33591.
Test [19] concerns Pseudomonas aeruginosa ATCC 47615.
Test [20] relates to Staphylococcus epidermidis ATCC 35984.
The subject of test [21] is Candida tropicalis 092422.
In test [22] the test system is Staphylococcus aureus ATCC 27660.
Test [23] concerns Pseudomonas aeruginosa ATCC 10145.
Test [24] concerns Klebsiella pneumoniae ATCC 700603.
Test [25] has as its system Pseudomonas aeruginosa 8600.
Test [26] relates to Pseudomonas aeruginosa 1570.
Test [27] deals with Pseudomonas aeruginosa 5167.
The test system of test [28] is Staphylococcus aureus JC114.
Test [29] has as its system Pseudomonas aeruginosa JC115.

In brackets after ≈: the same amount, converted by molar mass. Where only a bound is given, the exact number is not on record here.

The term MIC denotes the least concentration at which growth counts as inhibited. A low value points to a more susceptible organism. Turning to `CC[C@H](C)[C@H](NC(=O)CNC(=O)[C@H](CCC(N)=O)NC(=O)[C@H](CO)NC(=O)[C@@H](NC(=O)[C@H](CCCCN)NC(=O)[C@H](CCCCN)NC(=O)[C@H](CC(C)C)NC(=O)[C@H](C)NC(=O)[C@H](CC(N)=O)NC(=O)[C@H](CC(C)C)NC(=O)CN)C(C)C)C(=O)N[C@@H](Cc1cnc[nH]1)C(=O)N[C@@H](CCC(=O)O)C(=O)N[C@@H](CO)C(=O)N[C@H](C(=O)N[C@@H](CCCCN)C(=O)N[C@@H](CC(C)C)C(=O)N[C@H](C(=O)N[C@@H](CC(N)=O)C(=O)N[C@@H](CC(N)=O)C(=O)N[C@@H](Cc1cnc[nH]1)C(=O)N[C@H](C(=O)N[C@@H](CCC(N)=O)C(N)=O)C(C)C)[C@@H](C)CC)[C@@H](C)CC` [GLNALKKVSQGIHESIKLINNHVQ], the MIC in [1] was 32 µM (≈ 84.5 µg/mL); in test [2], 16 µM (≈ 42.2 µg/mL); in [3], at least 64 µM; in [4], at least 32 µM; in test [5], at least 64 µM; in test [6], at least 64 µM. Further, the MIC in [7] is 16 µM (≈ 42.2 µg/mL); in test [8] it was at least 32 µM; in test [9] it was at least 64 µM; in [10] it was at least 64 µM; in test [11] it was 16 µM (≈ 42.2 µg/mL); in test [12] it was at least 64 µM. Also, the MIC in test [13] and in [14] was at least 64 µM throughout.

Regarding `CC(C)C[C@H](NC(=O)[C@H](Cc1ccccc1)NC(=O)[C@H](CC(=O)O)NC(=O)CNC(=O)[C@H](CCC(=O)O)NC(=O)CNC(=O)[C@H](CO)NC(=O)[C@H](CC(=O)O)NC(=O)[C@H](C)N)C(=O)N[C@@H](C)C(=O)N[C@@H](CCC(=O)O)C(=O)NCC(=O)NCC(=O)NCC(=O)N[C@H](C(=O)N[C@@H](CCCN=C(N)N)C(=O)O)C(C)C` [ADSGEGDFLAEGGGVR], the MIC is at least 59.4 µM with Micrococcus luteus A270; at least 59.4 µM in the test with Cryptococcus neoformans; at least 59.4 µM against Cladosporium sp.; at least 59.4 µM against Penicillium expansum; at least 59.4 µM in [15]; 7.39 µM (≈ 11.4 µg/mL) in [11]. The MIC (against Escherichia coli SBS 363; in [16]) was 7.39 µM (≈ 11.4 µg/mL) throughout.

In the case of `CC[C@H](C)[C@H](NC(=O)[C@H](CCCCN)NC(=O)[C@@H](NC(=O)[C@H](Cc1ccccc1)NC(=O)[C@H](C)NC(=O)[C@H](CCCCN)NC(=O)CNC(=O)[C@H](Cc1ccccc1)NC(=O)[C@H](CCCCN)NC(=O)[C@H](CCCCN)NC(=O)[C@H](C)NC(=O)[C@H](CCCCN)NC(=O)[C@H](CCCCN)NC(=O)[C@H](CC(C)C)NC(=O)[C@H](Cc1ccccc1)NC(=O)[C@@H](N)CCCCN)C(C)C)C(=O)N[C@@H](CC(C)C)C(N)=O` [KFLKKAKKFGKAFVKIL], the MIC in test [1] turned out to be 5.67 µM (≈ 11.3 µg/mL); in [17], 15.6 µM (≈ 31.2 µg/mL); in test [2], 3.91 µM (≈ 7.8 µg/mL); in test [18], 16 µM (≈ 32 µg/mL); in test [19] it was 1.96 µM (≈ 3.91 µg/mL); in test [11] it was 0.251 µM (≈ 0.5 µg/mL). This molecule displayed an MIC in test [20] of 1 µM (≈ 2 µg/mL).

In test [21], `CC[C@H](C)[C@H](NC(=O)[C@H](C)NC(=O)[C@@H]1CCCN1C(=O)[C@@H](NC(=O)[C@@H](N)Cc1ccccc1)C(C)C)C(=O)N[C@@H](CC(C)C)C(=O)N[C@H]1CSSC[C@@H](C(=O)O)NC(=O)[C@H]([C@@H](C)O)NC(=O)[C@H](CCCCN)NC(=O)[C@H](CC(C)C)NC(=O)[C@H]([C@@H](C)CC)NC(=O)[C@H](CO)NC1=O` [FVPAILCSILKTC] showed an MIC of at least 71 µM.

`CC[C@H](C)[C@H](NC(=O)CNC(=O)[C@H](CCCCN)NC(=O)[C@H](Cc1ccccc1)NC(=O)[C@H](CC(C)C)NC(=O)[C@H](CCCCN)NC(=O)[C@H](CCCCN)NC(=O)[C@H](C)NC(=O)[C@H](CCCCN)NC(=O)[C@H](CCCCN)NC(=O)[C@H](Cc1ccccc1)NC(=O)CNC(=O)[C@H](CCCCN)NC(=O)[C@H](C)NC(=O)[C@H](Cc1c[nH]c2ccccc12)NC(=O)[C@@H](NC(=O)[C@H](CCCCN)NC(=O)[C@@H](NC(=O)[C@H](CC(C)C)NC(=O)[C@H](CCCCN)NC(=O)[C@@H](N)CCCCN)[C@@H](C)CC)C(C)C)C(=O)NCC(=O)O` [KKLIKVWAKGFKKAKKLFKGIG]: the MIC was 0.94 µM (≈ 2.37 µg/mL) against Escherichia coli D31, 0.94 µM (≈ 2.37 µg/mL) in test [22], 1.88 µM (≈ 4.73 µg/mL) in [23] and 1.88 µM (≈ 4.73 µg/mL) in test [24].

For the molecule `CC(C)C[C@H](NC(=O)[C@H](CC(C)C)NC(=O)[C@H](CCCCN)NC(=O)[C@H](CCCCN)NC(=O)[C@H](CC(C)C)NC(=O)[C@H](CC(C)C)NC(=O)[C@H](CCCCN)NC(=O)[C@H](CC(C)C)NC(=O)[C@H](C)N)C(N)=O` [ALKLLKKLL], the MIC is 10.9 µM (≈ 11.3 µg/mL) in test [25], at least 43.5 µM in test [26] and at least 123 µM in [27].

As to `NC(=O)[C@H](Cc1ccccc1)NC(=O)[C@@H]1CSSC[C@H](NC(=O)[C@H](Cc2ccccc2)NC(=O)[C@H](Cc2ccccc2)NC(=O)[C@@H](N)Cc2ccccc2)C(=O)N[C@@H](CO)C(=O)N[C@@H](CCCN=C(N)N)C(=O)N1` [FFFCSRCF], the MIC was at least 171 µM against Bacillus subtilis JC443, at least 180 µM in test [28], at least 152 µM against Escherichia coli JC113 and at least 157 µM in [29].
